Laboratory results published in patent publication US20260250257A1, “ANTIBACTERIAL AND SYNERGISTIC ACTIVE COMPOUND AND USE THEREOF” (EAST CHINA UNIVERSITY OF SCIENCE AND TECHNOLOGY, priority 2023, published 2026).
Values after ≈ are worked out from the molar mass of the structure shown.

Columns and labels:
Type in all cases: cell-based
[1] = system: ATCC19606 strain (Acinetobacter baumannii); assay: Broth microdilution, antibacterial activity of the compound used alone; conditions: for MIC: read-out: Antibacterial activity of the compound of Formula I, ATCC19606
Description: (§1) The broth microdilution method was used to test the antibacterial effects of the compounds of the present invention against various Gram-negative bacterial strains when used alone.

[2] = system: ATCC13883 strain (Klebsiella pneumoniae); assay: as above; conditions: for MIC: read-out: Antibacterial activity of the compound of Formula I, ATCC13883
Description: as §1

[3] = system: ATCC9027 strain (Pseudomonas aeruginosa); assay: as above; conditions: for MIC: read-out: Antibacterial activity of the compound of Formula I, ATCC9027
Description: as §1

[4] = system: ATCC25922 strain (Escherichia coli); assay: as above; conditions: for MIC: read-out: Antibacterial activity of the compound of Formula I, ATCC25922
Description: as §1

[5] = system: ATCC19606 strain (Acinetobacter baumannii); assay: Checkerboard antibacterial synergistic activity test with polymyxin E (FIC); set-up: key: FIC≤0.5 synergy; 0.5–1 additive; 1–2 indifferent; ≥2 antagonism; conditions: combined with polymyxin E
Method in brief: (§2)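 Checkerboard in MH broth: colistin dilutions 16→0.015 μg/ml × test drug 256→4 μg/ml (concentrations before adding inoculum); drug mix plus bacteria, 37° C., 16 h. FIC cut-offs: ≤0.5 synergy; 0.5–1 additive; 1–2 indifferent; ≥2 antagonism.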

[6] = system: ATCC13883 strain (Klebsiella pneumoniae); assay: as above; set-up: key: FIC≤0.5 synergy; 0.5–1 additive; 1–2 indifferent; ≥2 antagonism; conditions: combined with polymyxin E
Method in brief: as §2

[7] = system: ATCC9027 strain (Pseudomonas aeruginosa); assay: as above; set-up: key: FIC≤0.5 synergy; 0.5–1 additive; 1–2 indifferent; ≥2 antagonism; conditions: combined with polymyxin E
Method in brief: as §2

[8] = system: ATCC25922 strain (Escherichia coli); assay: as above; set-up: key: FIC≤0.5 synergy; 0.5–1 additive; 1–2 indifferent; ≥2 antagonism; conditions: combined with polymyxin E
Method in brief: as §2

| MIC [1] | MIC [2] | MIC [3] | MIC [4] | Compound | Antibacterial activity of the compound of Formula I, ATCC19606 [1] | Antibacterial activity of the compound of Formula I, ATCC13883 [2] | Antibacterial activity of the compound of Formula I, ATCC9027 [3] | Antibacterial activity of the compound of Formula I, ATCC25922 [4] | Synergistic activity (FIC value) ATCC19606 [5] | Synergistic activity (FIC value) ATCC13883 [6] | Synergistic activity (FIC value) ATCC9027 [7] | Synergistic activity (FIC value) ATCC25922 [8] |
| --- | --- | --- | --- | --- | --- | --- | --- | --- | --- | --- | --- | --- |
| – | – | – | – | NC(N)=Nc1nc(-c2c(Cl)cc(Cl)cc2Cl)c[nH]1 [Compound I-52] | 256 µg/mL | 256 µg/mL | 256 µg/mL | 256 µg/mL | 0.3 | 0.25 | 0.63 | 0.5 |
| – | – | – | – | CNC(=O)c1ccc(-c2ccncn2)c(-c2csc(N=C3NCCCN3)n2)c1 [Compound I-138] | 256 µg/mL | 256 µg/mL | 256 µg/mL | 256 µg/mL | 1.25 | 1.25 | 1.25 | 1.25 |
| – | – | – | – | COc1ccc(Oc2ccccc2-c2nc(N=C3NCCCN3)sc2C)c(C)c1 [Compound I-144] | 256 µg/mL | 256 µg/mL | 256 µg/mL | 256 µg/mL | 0.03 | 0.16 | 0.28 | 0.18 |
| – | – | – | – | NC(N)=Nc1nc(-c2c(Br)cc(Br)cc2Br)c(I)o1 [Compound I-53] | 256 µg/mL | 256 µg/mL | 256 µg/mL | 256 µg/mL | 0.28 | 0.25 | 0.63 | 0.5 |
| – | – | – | – | Ic1ccc(-c2csc(N=C3NCCCN3)n2)cc1 [Compound I-181] | 256 µg/mL | 256 µg/mL | 256 µg/mL | 256 µg/mL | 0.13 | 0.19 | 1.25 | 0.52 |
| – | – | – | – | NC(N)=Nc1nc(-c2cccc3ccccc23)cs1 [Compound I-55] | 256 µg/mL | 256 µg/mL | 256 µg/mL | 256 µg/mL | 0.13 | 0.31 | 0.53 | 0.38 |
| – | – | – | – | NC(N)=Nc1nc(-c2ccccc2[N+](=O)[O-])c[nH]1 [Compound I-20] | 256 µg/mL | 256 µg/mL | 256 µg/mL | 256 µg/mL | 0.75 | 0.63 | 0.56 | 0.5 |
| – | – | – | – | Cc1c(-c2coc(N=C3NCCCN3)n2)ccc(Cl)c1C#N [Compound I-169] | 256 µg/mL | 256 µg/mL | 256 µg/mL | 256 µg/mL | 0.15 | 0.33 | 0.62 | 0.39 |
| 256 µg/mL (≈ 812 µM) | 128 µg/mL (≈ 406 µM) | 64 µg/mL (≈ 203 µM) | 128 µg/mL (≈ 406 µM) | NC(N)=Nc1nc(-c2cc(OCc3ccccc3)no2)cs1 [Compound I-113] | – | – | – | – | 1.25 | 1.25 | 1.25 | 0.53 |
| – | – | – | – | FC(F)(F)c1ccc(-c2cccs2)c(-c2c[nH]c(N=C3NCCCN3)n2)c1 [Compound I-140] | 256 µg/mL | 256 µg/mL | 256 µg/mL | 256 µg/mL | 0.51 | 1.25 | 0.52 | 1.25 |
| – | – | – | – | COc1ccc(Oc2cc(Br)cc(-c3csc(N=C4NCCCN4)n3)c2)c(OC)c1 [Compound I-159] | 256 µg/mL | 256 µg/mL | 256 µg/mL | 256 µg/mL | 0.31 | 0.09 | 0.06 | 0.14 |
| – | – | – | – | COc1ccc(Oc2ccccc2-c2csc(N=C(N)N)n2)c(C)c1 [Compound I-83] | 256 µg/mL | 256 µg/mL | 256 µg/mL | 256 µg/mL | 0.63 | 0.09 | 0.04 | 0.27 |
| – | – | – | – | COc1ccc(Oc2cccc(-c3c[nH]c(N=C(N)N)n3)c2)c(C)c1 [Compound I-93] | 256 µg/mL | 256 µg/mL | 256 µg/mL | 256 µg/mL | 0.03 | 0.16 | 0.28 | 0.18 |
| 256 µg/mL (≈ 870 µM) | 256 µg/mL (≈ 870 µM) | 256 µg/mL (≈ 870 µM) | 256 µg/mL (≈ 870 µM) | NC(N)=Nc1nc(-c2cccc(-c3ccccc3)c2)cs1 [Compound I-74] | – | – | – | – | 0.15 | 0.33 | 0.62 | 0.39 |
| – | – | – | – | NC(N)=Nc1nc(-c2ccccc2OCc2ccccc2)cs1 [Compound I-7] | 256 µg/mL | 256 µg/mL | 256 µg/mL | 256 µg/mL | 0.16 | 0.51 | 0.75 | 0.51 |
| – | – | – | – | Oc1ccc(-c2ccccn2)c(-c2c[se]c(N=C3NCCCN3)n2)c1 [Compound I-137] | 256 µg/mL | 128 µg/mL | 128 µg/mL | 128 µg/mL | 1.25 | 1.25 | 1.25 | 0.5 |
| – | – | – | – | Cc1ccccc1Oc1ccccc1-c1csc(N=C(N)N)n1 [Compound I-81] | 256 µg/mL | 256 µg/mL | 256 µg/mL | 256 µg/mL | 0.31 | 0.09 | 0.06 | 0.14 |
| – | – | – | – | NC(N)=Nc1nc(-c2c(F)cccc2-c2nccs2)cs1 [Compound I-80] | 256 µg/mL | 256 µg/mL | 256 µg/mL | 256 µg/mL | 0.52 | 0.52 | 1.25 | 0.63 |
| – | – | – | – | C[Si](C)(C)c1ccc(-c2csc(N=C(N)N)n2)cc1 [Compound I-22] | 256 µg/mL | 256 µg/mL | 256 µg/mL | 256 µg/mL | 0.75 | 0.38 | 0.63 | 0.5 |
